Assays:
[1] = test system: A498; format: cell-based; conditions: one dose 10^-5 M, 48 h
[2] = test system: TK-10; format: cell-based; conditions: one dose 10^-5 M, 48 h
[3] = test system: A549/ATCC; format: cell-based; conditions: one dose 10^-5 M, 48 h
[4] = test system: ACHN; format: cell-based; conditions: one dose 10^-5 M, 48 h
[5] = test system: OVCAR-5; format: cell-based; conditions: one dose 10^-5 M, 48 h
[6] = test system: UO-31; format: cell-based; conditions: one dose 10^-5 M, 48 h
[7] = test system: RPMI-8226; format: cell-based; conditions: one dose 10^-5 M, 48 h
[8] = test system: NCI/ADR-RES; format: cell-based; conditions: one dose 10^-5 M, 48 h
[9] = test system: UACC-257; format: cell-based; conditions: one dose 10^-5 M, 48 h
[10] = test system: UACC-62; format: cell-based; conditions: one dose 10^-5 M, 48 h
[11] = test system: RXF 393; format: cell-based; conditions: one dose 10^-5 M, 48 h
[12] = test system: MALME-3M; format: cell-based; conditions: one dose 10^-5 M, 48 h
[13] = test system: SNB-19; format: cell-based; conditions: one dose 10^-5 M, 48 h
[14] = test system: EKVX; format: cell-based; conditions: one dose 10^-5 M, 48 h
[15] = test system: DU-145; format: cell-based; conditions: one dose 10^-5 M, 48 h
[16] = test system: NCI-H522; format: cell-based; conditions: one dose 10^-5 M, 48 h
[17] = test system: NCI-H226; format: cell-based; conditions: one dose 10^-5 M, 48 h
[18] = test system: MOLT-4; format: cell-based; conditions: one dose 10^-5 M, 48 h
[19] = test system: HOP-62; format: cell-based; conditions: one dose 10^-5 M, 48 h
[20] = test system: CCRF-CEM; format: cell-based; conditions: one dose 10^-5 M, 48 h
[21] = test system: HS 578T; format: cell-based; conditions: one dose 10^-5 M, 48 h, HS 578T
[22] = test system: HCC-2998; format: cell-based; conditions: one dose 10^-5 M, 48 h
[23] = test system: SW-620; format: cell-based; conditions: one dose 10^-5 M, 48 h
[24] = test system: LOX IMVI; format: cell-based; conditions: one dose 10^-5 M, 48 h
[25] = test system: SF-295; format: cell-based; conditions: one dose 10^-5 M, 48 h
[26] = test system: SK-OV-3; format: cell-based; conditions: one dose 10^-5 M, 48 h
[27] = test system: COLO 205; format: cell-based; conditions: one dose 10^-5 M, 48 h
[28] = test system: PC-3; format: cell-based; conditions: one dose 10^-5 M, 48 h
[29] = test system: T-47D; format: cell-based; conditions: one dose 10^-5 M, 48 h
[30] = test system: SF-539; format: cell-based; conditions: one dose 10^-5 M, 48 h
[31] = test system: MDA-MB-231/ATCC; format: cell-based; conditions: one dose 10^-5 M, 48 h
[32] = test system: 786-0; format: cell-based; conditions: one dose 10^-5 M, 48 h
[33] = test system: K-562; format: cell-based; conditions: 48 h
[34] = test system: SK-MEL-28; format: cell-based; conditions: one dose 10^-5 M, 48 h
[35] = test system: SR; format: cell-based; conditions: one dose 10^-5 M, 48 h
[36] = test system: OVCAR-4; format: cell-based; conditions: one dose 10^-5 M, 48 h
[37] = test system: NCI-H460; format: cell-based; conditions: one dose 10^-5 M, 48 h
[38] = test system: IGROV1; format: cell-based; conditions: 48 h
[39] = test system: MDA-MB-468; format: cell-based; conditions: one dose 10^-5 M, 48 h
[40] = test system: HOP-92; format: cell-based; conditions: one dose 10^-5 M, 48 h
[41] = test system: SN12C; format: cell-based, human; conditions: one dose 10^-5 M, 48 h
[42] = test system: SK-MEL-2; format: cell-based; conditions: one dose 10^-5 M, 48 h
[43] = test system: SK-MEL-5; format: cell-based; conditions: one dose 10^-5 M, 48 h
[44] = test system: BT-549; format: cell-based; conditions: one dose 10^-5 M, 48 h
[45] = test system: NCI-H23; format: cell-based; conditions: one dose 10^-5 M, 48 h
[46] = test system: HCT-116; format: cell-based; conditions: one dose 10^-5 M, 48 h
[47] = test system: MDA-MB-435; format: cell-based; conditions: one dose 10^-5 M, 48 h
[48] = test system: MCF7; format: cell-based; conditions: one dose 10^-5 M, 48 h
[49] = test system: OVCAR-3; format: cell-based; conditions: one dose 10^-5 M, 48 h
[50] = test system: HT29; format: cell-based; conditions: 48 h
[51] = test system: HCT-15; format: cell-based; conditions: one dose 10^-5 M, 48 h
[52] = test system: HL-60(TB); format: cell-based; conditions: one dose 10^-5 M, 48 h
[53] = test system: M14; format: cell-based; conditions: one dose 10^-5 M, 48 h
[54] = test system: SF-268; format: cell-based; conditions: one dose 10^-5 M, 48 h
[55] = test system: OVCAR-8; format: cell-based; conditions: one dose 10^-5 M, 48 h
[56] = test system: full NCI 60 cell lines panel; conditions: for activity on all 60 cancer cell lines tested (in words): one dose; for Mean % growth: one dose 10^-5 M, mean over all cell lines
[57] = test system: U251; format: cell-based; conditions: 48 h
[58] = test system: KM12; format: cell-based; conditions: one dose 10^-5 M, 48 h
[59] = test system: CAKI-1; format: cell-based; conditions: one dose 10^-5 M, 48 h
[60] = Homo sapiens, read-out: % growth

N=C(NN=Cc1ccc(Cl)cc1Cl)c1c(N)nc(S)nc1-c1ccc(Cl)cc1Cl [Compound 4r, 4-amino-6–(2,4-dichlorophenyl)-N'-[(2,4-dichlorophenyl)methylene]-2-mercapto pyrimidine-5-carboximidohydrazide]
% growth at 10 µM ([1]; Homo sapiens): 117% | % cell growth at 10 µM ([2]; Homo sapiens): 112% | % growth at 10 µM ([3]; Homo sapiens): 102% | % growth at 10 µM ([4]; Homo sapiens): 107% | percent cell growth at 10 µM ([5]; Homo sapiens): 117% | % cell growth at 10 µM ([6]; Homo sapiens, UO-31, 48 h): 92.5% | % growth at 10 µM ([7]; Homo sapiens): 106% | cell growth percent at 10 µM ([8]; Homo sapiens): 111% | percent cell growth at 10 µM ([9]; Homo sapiens): 106% | % growth at 10 µM ([10]; Homo sapiens): 96.4% | activity at 10 µM ([11]; Homo sapiens, RXF 393, 48 h, read-out: % growth): 119% | % growth at 10 µM ([12]; Homo sapiens): 86.5% | activity at 10 µM [13, 60]: 94.6% | % cell growth at 10 µM ([14]; Homo sapiens): 114% | % growth at 10 µM ([15]; Homo sapiens): 108% | % growth at 10 µM ([16]; Homo sapiens): 100% | % growth at 10 µM ([17]; Homo sapiens): 106% | activity at 10 µM [18, 60]: 100% | % growth at 10 µM ([19]; Homo sapiens): 102% | % cell growth at 10 µM ([20]; Homo sapiens): 94.9% | activity at 10 µM [21, 60]: 105% | % growth at 10 µM ([22]; Homo sapiens): 100% | % growth at 10 µM ([23]; Homo sapiens): 105% | activity at 10 µM [24, 60]: 104% | % cell growth at 10 µM ([25]; Homo sapiens): 98.5% | % growth at 10 µM ([26]; Homo sapiens): 105% | % growth at 10 µM ([27]; Homo sapiens): 113% | percent cell growth at 10 µM ([28]; Homo sapiens): 98.1% | activity at 10 µM ([29]; Homo sapiens, T47D, read-out: % growth): 103% | % growth at 10 µM ([30]; Homo sapiens): 101% | % growth at 10 µM ([31]; Homo sapiens): 101% | % growth at 10 µM ([32]; Homo sapiens): 87.5% | % growth at 10 µM ([33]; Homo sapiens, K562, one dose 10^-5 M): 100% | % cell growth at 10 µM ([34]; Homo sapiens): 113% | percent cell growth at 10 µM ([35]; Homo sapiens): 92.6% | % growth at 10 µM ([36]; Homo sapiens): 104% | activity at 10 µM [37, 60]: 111% | activity at 10 µM ([38]; Homo sapiens, IGROV-1, one dose 10^-5 M, read-out: % growth): 102% | percent cell growth at 10 µM ([39]; Homo sapiens): 111% | % growth at 10 µM ([40]; Homo sapiens): 78% | % growth at 10 µM ([41]; Homo sapiens): 102% | % growth at 10 µM ([42]; Homo sapiens): 111% | activity at 10 µM [43, 60]: 107% | % cell growth at 10 µM ([44]; Homo sapiens): 91.6% | activity at 10 µM [45, 60]: 104% | activity at 10 µM [46, 60]: 102% | activity at 10 µM [47, 60]: 113% | activity at 10 µM [48, 60]: 98.9% | % growth at 10 µM ([49]; Homo sapiens): 108% | % growth at 10 µM ([50]; Homo sapiens, HT-29, one dose 10^-5 M): 118% | activity at 10 µM [51, 60]: 113% | % growth at 10 µM ([52]; Homo sapiens): 102% | % growth at 10 µM ([53]; Homo sapiens): 97.4% | activity at 10 µM [54, 60]: 101% | % growth of cells at 10 µM ([55]; Homo sapiens): 110% | activity at 10 µM ([56]; Homo sapiens, 60 cell, 48 h, read-out: Mean % growth): 104% | activity on all 60 cancer cell lines tested (in words) [56]: weak activity | Mean % growth ([56]; 48 h): 103.80% | % growth at 10 µM ([57]; Homo sapiens, U-251, one dose 10^-5 M): 105% | % growth at 10 µM ([58]; Homo sapiens): 100% | % growth at 10 µM ([59]; Homo sapiens, CAKI-1, 48 h): 109%

4-Amino-6–(2,4-dichlorophenyl)-2-mercaptopyrimidine-5-carboximidohydrazide [Compound 2c]
% growth [1]: 105.32% | % growth [2]: 111.85% | % growth [3]: 89.50% | % growth [4]: 76.09% | % growth [5]: 98.09% | % growth [6]: 71.44% | % growth [7]: 87.93% | % growth [8]: 103.23% | % growth [9]: 102.94% | % growth [10]: 84.96% | % growth [11]: 94.62% | % growth [12]: 94.17% | % growth [13]: 86.22% | % growth [14]: 83.88% | % growth [15]: 107.65% | % growth [16]: 68.80% | % growth [17]: 90.50% | % growth [18]: 94.43% | % growth [19]: 95.11% | % growth [20]: 75.32% | % growth [21]: 99.16% | % growth [22]: 108.77% | % growth [23]: 87.86% | % growth [24]: 86.57% | % growth [25]: 93.63% | % growth [26]: 94.00% | % growth [27]: 100.56% | % growth [28]: 77.58% | % growth [29]: 73.88% | % growth [30]: 85.28% | % growth [31]: 77.09% | % growth [32]: 90.40% | % growth ([33]; one dose 10^-5 M): 91.24% | % growth [34]: 109.76% | % growth [35]: 69.30% | % growth [36]: 82.22% | % growth [37]: 89.85% | % growth ([38]; one dose 10^-5 M): 104.68% | % growth [39]: 90.16% | % growth [40]: 71.67% | % growth [41]: 91.26% | % growth [42]: 95.39% | % growth [43]: 97.76% | % growth [44]: 81.84% | % growth [45]: 95.68% | % growth [46]: 85.00% | % growth [47]: 96.41% | % growth [48]: 79.62% | % growth [49]: 104.96% | % growth ([50]; one dose 10^-5 M): 89.84% | % growth [51]: 92.01% | % growth [52]: 57.91% | % growth [53]: 95.64% | % growth [54]: 104.49% | % growth [55]: 94.00% | activity on all 60 cancer cell lines tested (in words) [56]: weak activity | Mean % growth ([56]; 48 h): 90.71% | % growth ([57]; one dose 10^-5 M): 103.26% | % growth [58]: 100.35% | % growth [59]: 83.79%
